Laboratory results as given in BindingDB's records for PubMed 2138666 (Department of Veterans Affairs Medical Center, 1990).

Key:
D(2) dopamine receptor = D(2) dopamine receptor (Rattus norvegicus, UniProt P61169)
[1] = biological target: T1, Alpha-2C adrenergic receptor (Rattus norvegicus, UniProt P22086)
T1 sequence (P22086 whole entry): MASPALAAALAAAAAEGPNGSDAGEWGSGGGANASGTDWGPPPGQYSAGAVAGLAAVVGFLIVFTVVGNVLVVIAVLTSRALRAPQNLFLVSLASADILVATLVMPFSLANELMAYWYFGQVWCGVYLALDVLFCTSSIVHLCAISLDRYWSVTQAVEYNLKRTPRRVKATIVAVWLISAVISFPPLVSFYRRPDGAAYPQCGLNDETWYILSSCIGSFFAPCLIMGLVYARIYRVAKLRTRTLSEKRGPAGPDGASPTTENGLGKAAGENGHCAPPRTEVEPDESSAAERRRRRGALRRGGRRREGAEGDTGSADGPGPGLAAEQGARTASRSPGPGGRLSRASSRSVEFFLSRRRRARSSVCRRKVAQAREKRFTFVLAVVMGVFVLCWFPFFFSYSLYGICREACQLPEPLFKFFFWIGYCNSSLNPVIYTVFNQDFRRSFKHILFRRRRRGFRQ

Chain of D(2) dopamine receptor (P61169 whole entry): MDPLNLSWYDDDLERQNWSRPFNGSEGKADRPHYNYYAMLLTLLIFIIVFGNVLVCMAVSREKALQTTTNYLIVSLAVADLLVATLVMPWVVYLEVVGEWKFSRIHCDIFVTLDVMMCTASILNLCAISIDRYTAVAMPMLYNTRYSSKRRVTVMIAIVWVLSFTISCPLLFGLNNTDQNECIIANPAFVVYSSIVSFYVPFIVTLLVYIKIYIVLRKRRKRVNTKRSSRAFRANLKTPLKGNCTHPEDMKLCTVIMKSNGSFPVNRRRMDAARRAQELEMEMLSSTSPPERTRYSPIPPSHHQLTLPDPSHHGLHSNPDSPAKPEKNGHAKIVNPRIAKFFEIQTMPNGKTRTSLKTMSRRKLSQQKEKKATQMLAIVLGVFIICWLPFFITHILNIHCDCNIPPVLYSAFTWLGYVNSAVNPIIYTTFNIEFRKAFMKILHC

Ki (D(2) dopamine receptor) [µM] | Ki [1] [µM] | SMILES
> 10 | – | Clc1cccc(Cl)c1N=C1NCCN1 [2-(2,6-dichloroanilino)-2-imidazoline]
– | 0.158 | CC(C)(C)[C@]1(O)CCN2C[C@H]3c4ccccc4CCc4cccc(c43)[C@@H]2C1
– | 4.3 | CCN1CCCC1CNC(=O)c1cc(S(N)(=O)=O)ccc1OC (stereo not given) [N-[(1-ethylpyrrolidin-2-yl)methyl]-2-methoxy-5-sulfamoylbenzamide]
> 10 | – | Nc1cc(Cl)c(N=C2NCCN2)c(Cl)c1 [p-AMINOCLONIDINE]

SMILES | Ki (D(2) dopamine receptor) [µM] | Ki [1] [µM]
c1ccc2c(c1)OCC(C1=NCCN1)O2 (stereo not given) | > 10 | –
